# Columns and labels:
# μ-opioid receptors [1] = molecular target: T1, μ-opioid receptors (Homo sapiens (Human), UniProt P35372); assay: μ-opioid receptor radioligand dose-displacement binding assay ([3H]-diprenorphine); conditions: mean ± SEM, read-out: Binding Affinity Opioid Receptor Ki (nM) [mean ± SEM] μ
# Procedure: Radioligand dose-displacement binding assays for μ-opioid receptors used 0.3 nM [^3H]-diprenorphine (Perkin Elmer, Shelton, Conn.), with […] membrane protein/well in a final volume of 500 μl binding buffer (10 mM MgCl2, 1 mM EDTA, 5% DMSO, 50 mM HEPES, pH 7.4). Reactions were carried out in the absence or presence of increasing concentrations of unlabeled naloxone. All reactions were conducted in 96-deep well polypropylene plates for 2 hours at room temperature. Binding reactions were terminated by rapid filtration onto 96-well Unifilter GF/C filter plates (Perkin Elmer, Shelton, Conn.), presoaked in 0.5% polyethylenimine using a 96-well tissue harvester (Perkin Elmer, Shelton, Conn.) followed by performing three filtration washes with 500 μl of ice-cold binding buffer. Filter plates were subsequently dried at 50° C. for 2-3 hours. BetaScint scintillation cocktail (Perkin Elmer, Shelton, Conn.) was added (50 μl/well), and plates were counted using a Packard Top-Count for 1 min/well. The data were analyzed using the one-site competition curve fitting functions in GraphPad PRISM™ v. 3.0 or higher (San Diego, Calif.), or an in-house function for one-site competition curve-fitting.
# (§1) The following tables provide results on the efficacy of binding and activity response of exemplified Compounds of the Invention at the μ- and κ-opioid receptors. In TABLE 3, binding affinity of certain Compounds of the Invention to the μ- and κ-opioid receptors was determined as described above. In TABLE 4, activity response of certain Compounds of the Invention to the μ- and κ-opioid receptors was determined as described above for functional assays using HEK-293 cells. In TABLE 5, activity response of certain Compounds of the Invention to the μ- and κ-opioid receptors was determined as described above using U-2 OS cells.
# κ opioid receptor [2] = molecular target: T2, κ opioid receptor (Homo sapiens (Human), UniProt P41145); assay: κ-opioid receptor [35S]GTPγS functional assay, U-2 OS cells; assay type: biochemical; conditions: κ GTP; for EC50: read-out: Activity Response κ EC50 (nM) [mean ± SEM]; for Emax: relative to U69,593, read-out: Activity Response κ Emax (%)
# [3] = molecular target: recombinant human kappa opioid receptor (κ) (Homo sapiens (Human), UniProt P41145); assay: κ-opioid receptor radioligand dose displacement binding assay ([3H]-U69,593); conditions: mean ± SEM, read-out: Binding Affinity Opioid Receptor Ki (nM) [mean ± SEM] κ
# Procedure: (§2) Membranes from HEK-293 cells, CHO or U-2 OS cells expressing the recombinant human kappa opioid receptor (κ) were prepared by lysing cells in ice cold hypotonic buffer (2.5 mM MgCl2, 50 mM HEPES, pH 7.4) (10 mL/10 cm dish) followed by homogenization with a tissue grinder/Teflon pestle. Membranes were collected by centrifugation at 30,000×g for 15 min at 4° C. and pellets were resuspended in hypotonic buffer to a final concentration of 1-3 mg/mL. Protein concentrations were determined using the BioRad protein assay reagent with bovine serum albumen as standard. Aliquots of κ receptor membranes were stored at −80° C.
# Radioligand dose displacement assays used 0.4 nM [^3H]-U69,593 (GE Healthcare, Piscataway, N.J.; 40 Ci/mmole) with 15 μg membrane protein (recombinant κ opioid receptor expressed in HEK 293 cells; in-house prep) in a final volume of 200 μl binding buffer (5% DMSO, 50 mM Trizma base, pH 7.4). Non-specific binding was determined in the presence of 10 μM unlabeled naloxone or U69,593. All reactions were performed in 96-well polypropylene plates for 1 hour at a temperature of about 25° C. Binding reactions were terminated by rapid filtration onto 96-well Unifilter GF/C filter plates (Perkin Elmer, Shelton, Conn.) presoaked in 0.5% polyethylenimine (Sigma). Harvesting was performed using a 96-well tissue harvester (Perkin Elmer, Shelton, Conn.) followed by five filtration washes with 200 μl ice-cold binding buffer. Filter plates were subsequently dried at 50° C. for 1-2 hours. Fifty μl/well scintillation cocktail (Perkin Elmer, Shelton, Conn.) was added and plates were counted in a Packard Top-Count for 1 min/well.
# as §1
# κ opioid receptor [4] = molecular target: T2, κ opioid receptor; assay: κ-opioid receptor [35S]GTPγS functional assay, HEK-293 cells; assay type: biochemical; conditions: κ GTP; for EC50: read-out: Activity Response κ EC50 (nM) [mean ± SEM]; for Emax: relative to U69,593, read-out: Activity Response κ Emax (%)
# Procedure: as §2
# Functional [^35S]GTPγS binding assays were conducted as follows. κ opioid receptor membrane solution was prepared by sequentially adding final concentrations of 0.026 μg/μl κ membrane protein (in-house), 10 μg/mL saponin, 3 μM GDP and 0.20 nM [^35S]GTPγS to binding buffer (100 mM NaCl, 10 mM MgCl2, 20 mM HEPES, pH 7.4) on ice. The prepared membrane solution (190 μl/well) was transferred to 96-shallow well polypropylene plates containing 10 μl of 20× concentrated stock solutions of agonist prepared in DMSO. Plates were incubated for 30 min at a temperature of about 25° C. with shaking. Reactions were terminated by rapid filtration onto 96-well Unifilter GF/B filter plates (Perkin Elmer, Shelton, Conn.) using a 96-well tissue harvester (Packard) and followed by three filtration washes with 200 μl ice-cold binding buffer (10 mM NaH2PO4, 10 mM Na2HPO4, pH 7.4). Filter plates were subsequently dried at 50° C. for 2-3 hours. Fifty μl/well scintillation cocktail (Perkin Elmer, Shelton, Conn.) was added and plates were counted in a Packard Top-Count for 1 min/well.
# κ GTP EC50 is the concentration of a compound providing 50% of the maximal response for the compound at a κ receptor.
# κ GTP Emax (%) is the maximal effect elicited by a compound relative to the effect elicited by U69,593.
# as §1, with “In” for “The following tables provide results on the efficacy of binding and activity response of exemplified Compounds of the Invention at the μ- and κ-opioid receptors. In”
# μ-opioid receptors [5] = molecular target: T1, μ-opioid receptors; assay: μ-opioid receptor [35S]GTPγS functional assay, HEK-293 cells; assay type: biochemical; conditions: μ GTP; for EC50: read-out: Activity Response μ EC50 (nM) [mean ± SEM]; for Emax: relative to DAMGO, read-out: Activity Response μ Emax (%)
# Procedure: [^35S]GTPγS functional assays were conducted using freshly thawed μ-receptor membranes prepared from a cell line expressing recombinant μ opioid receptor in a HEK-293, CHO or U-2 OS cell background or purchased from a commercial source (Perkin Elmer, Shelton, Conn.; or DiscovRx, Fremont, Calif.). Assay reactions were prepared by sequentially adding the following reagents to binding buffer (100 mM NaCl, 10 mM MgCl2, 20 mM HEPES, pH 7.4) on ice (final concentrations indicated): membrane protein (0.026 mg/mL), saponin ([…]), GDP ([…]) and [^35S]GTPγS (0.20 nM; Perkin Elmer, Shelton, Conn.). The prepared membrane solution (190 μl/well) was transferred to 96-shallow well polypropylene plates containing 10 μl of 20× concentrated stock solutions of the agonist [D-Ala^2, N-methyl-Phe^4 Gly-ol^5]-enkephalin (DAMGO) prepared in dimethyl sulfoxide (DMSO). Plates were incubated for 30 min at about 25° C. with shaking. Reactions were terminated by rapid filtration onto 96-well Unifilter GF/B filter plates (Perkin Elmer, Shelton, Conn.) using a 96-well tissue harvester (Perkin Elmer, Shelton, Conn.) followed by three filtration washes with 200 μl of ice-cold wash buffer (10 mM NaH2PO4, 10 mM Na2HPO4, pH 7.4). Filter plates were subsequently dried at 50° C. for 2-3 hours. BetaScint scintillation cocktail (Perkin Elmer, Shelton, Conn.) was added (50 μl/well) and plates were counted using a Packard Top-Count for 1 min/well. Data were analyzed using the sigmoidal dose-response curve fitting functions in GraphPad PRISM v. 3.0, or an in-house function for non-linear, sigmoidal dose-response curve-fitting.
# μ GTP EC50 is the concentration of a compound providing 50% of the maximal response for the compound at a μ-opioid receptor.
# μ GTP Emax (%) is the maximal effect elicited by a compound relative to the effect elicited by DAMGO, a standard μ agonist. Generally, the μ GTP Emax (%) value measures the efficacy of a compound to treat or prevent pain or other Conditions.
# as §1
# μ-opioid receptors [6] = molecular target: T1, μ-opioid receptors; assay: μ-opioid receptor [35S]GTPγS functional assay, U-2 OS cells; assay type: biochemical; conditions: μ GTP; for EC50: read-out: Activity Response μ EC50 (nM) [mean ± SEM]; for Emax: relative to DAMGO, read-out: Activity Response μ Emax (%)
Structure (SMILES),Ki (μ-opioid receptors [1]),EC50 (κ opioid receptor [2]),Emax (κ opioid receptor [2]),Ki [3],EC50 (κ opioid receptor [4]),Emax (κ opioid receptor [4]),EC50 (μ-opioid receptors [5]),Emax (μ-opioid receptors [5]),EC50 (μ-opioid receptors [6]),Emax (μ-opioid receptors [6])
"COc1ccc2c(c1)[C@]13CCN(CC4CC4)[C@H](C2)[C@]1(O)C[C@H](CCOCc1ccccc1)C(=O)C3 [Compound 48, (4bR,7S,8aS,9R)-7-(2-(benzyloxy)ethyl)-11-(cyclopropylmethyl)-8a-hydroxy-3-methoxy-8,8a,9,10-tetrahydro-5H-9,4b-(epiminoethano)phenanthren-6(7H)-one]",223 ± 32.5 nM,225 ± 20.1 nM,119 ± 4.91%,65.3 ± 4.49 nM,362 ± 36.6 nM,70.3 ± 6.94%,463 ± 32.6 nM,139 ± 3.21%,38.6 ± 2.85 nM,98 ± 2.65%
"CC(C)[C@H]1C[C@H]2[C@H]3Cc4ccc(O)cc4[C@@]2(CCN3CC2CC2)CC1=O [Compound 74, (4bS,7R,8aR,9R)-11-(cyclopropylmethyl)-3-hydroxy-7-isopropyl-8,8a,9,10-tetrahydro-5H-9,4b-(epiminoethano)phenanthren-6(7H)-one]",7.42 ± 2.25 nM,1.42 ± 0.15 nM,91.3 ± 3.76%,0.33 ± 0.041 nM,3.52 ± 1 nM,34 ± 5.86%,2.31 ± 0.6 nM,90.3 ± 3.84%,3.66 ± 0.82 nM,46 ± 11%
"COCC[C@H]1C[C@@]2(O)[C@H]3Cc4ccc(OC)cc4[C@@]2(CCN3CC2CC2)CC1=O [Compound 49, (4bR,7S,8aS,9R)-11-(cyclopropylmethyl)-8a-hydroxy-3-methoxy-7-(2-methoxyethyl)-8,8a,9,10-tetrahydro-5H-9,4b-(epiminoethano)phenanthren-6(7H)-one]",1960 ± 638 nM,1280 ± 160 nM,108 ± 5.57%,324 ± 48 nM,,,,,,
"O=C(O)C[C@H]1C[C@@]2(O)[C@H]3Cc4ccc(O)cc4[C@@]2(CCN3CC2CC2)CC1=O [Compound 9, 2-((4bR,7R,8aS,9R)-11-(cyclopropylmethyl)-3,8a-dihydroxy-6-oxo-6,7,8,8a,9,10-hexahydro-5H-9,4b-(epiminoethano)phenanthren-7-yl)acetic acid]",6.18 ± 0.76 nM,,,0.97 ± 0.19 nM,17.3 ± 3.73 nM,40.8 ± 1.93%,> 200000 nM,-1%,,
"O=C1C[C@]23CCN(CC4CC4)[C@H](Cc4ccc(O)cc42)[C@]3(O)C[C@@H]1CC(=O)N1CCC[C@H]1C(=O)O [Compound 17, (S)-1-(2-((4bR,7R,8aS,9R)-11-(cyclopropylmethyl)-3,8a-dihydroxy-6-oxo-6,7,8,8a,9,10-hexahydro-5H-9,4b-(epiminoethano)phenanthren-7-yl)acetyl)pyrrolidine-2-carboxylic acid]",,,,128 ± 18.1 nM,> 200000 nM,,> 200000 nM,0%,,
"CC(C)C[C@H](NC(=O)C[C@H]1C[C@@]2(O)[C@H]3Cc4ccc(O)cc4[C@@]2(CCN3CC2CC2)CC1=O)C(=O)O [Compound 19, (S)-2-(2-((4bR,7R,8aS,9R)-11-(cyclopropylmethyl)-3,8a-dihydroxy-6-oxo-6,7,8,8a,9,10-hexahydro-5H-9,4b-(epiminoethano)phenanthren-7-yl)acetamido)-4-methylpentanoic acid]",,,,146 ± 29.7 nM,201 ± 25.9 nM,41.3 ± 2.85%,49.7 ± 7.48 nM,37.5 ± 3.93%,,
"COc1ccc2c(c1)[C@]13CCN(CC4CC4)[C@H](C2)[C@]1(O)C[C@H](CC(=O)O)C(=O)C3 [Compound 8, 2-((4bR,7R,8aS,9R)-11-(cyclopropylmethyl)-8a-hydroxy-3-methoxy-6-oxo-6,7,8,8a,9,10-hexahydro-5H-9,4b-(epiminoethano)phenanthren-7-yl)acetic acid]",,,,261 ± 97.3 nM,4440 ± 679 nM,66.7 ± 6.84%,703 ± 72 nM,59.7 ± 8.69%,,
"COc1ccc2c(c1)[C@]13CCN(CC4CC4)[C@H](C2)[C@]1(O)C[C@H](CCO)C(=O)C3 [Compound 46, (4bR,7S,8aS,9R)-11-(cyclopropylmethyl)-8a-hydroxy-7-(2-hydroxyethyl)-3-methoxy-8,8a,9,10-tetrahydro-5H-9,4b-(epiminoethano)phenanthren-6(7H)-one]",591 ± 80.3 nM,1020 ± 110 nM,109 ± 4.84%,394 ± 85.2 nM,,,,,409 ± 88.5 nM,68.7 ± 4.1%

# — patent US9388162B2, “Substituted morphinans and the use thereof” (Purdue Pharma L.P., priority 2012, dated 2016)
